From US12440471B2, “Compositions and methods for the treatment of bronchopulmonary dysplasia (BPD) and BPD-associated pulmonary hypertension” (AyuVis Research, Inc., priority 2021, dated 2025)

What was measured:
pre-term lamb BPD model = assay: Pre-term lamb BPD model: BAL fluid protein, VEGF, ICAM-1; type: in vivo; conditions: for VEGF concentrations in BAL fluid: vs vehicle after 10 days
Description: A total 9 lambs were used for this study. One dose of Curosurf was given intratracheally to the PT lamb just after birth. Randomized doses of compound AVR-48 (8) (0, 0.1, 0.3, 1.0 and 3.0 mg/kg) were administered intravenously every 12 hr after the initial dose that will be given at 6 hr after delivery to n=2-4 lambs via slow intravenous injection. The beginning treatment at 6 hr post-delivery is selected to represent the human case where neonatologists attempt to allow an infant to breath without mechanical ventilation, if possible, and then begin invasive respiratory support as necessary. Whole blood was drawn from PT lambs at the time of delivery (“pre-dose”), immediately after dosing (IAD), at 15, 30, 45, and 60 min, and at 2, 4, 8, 12, 24, 48, 72, and 96 hr after the initial dose. Plasma extractions and bioanalysis of compound AVR-48 (8) were performed using a qualified bioanalysis method already developed by us. The PK parameters were calculated following both non-Compartmental Pharmacokinetic Modeling and population Pharmacokinetic Modeling as described by Roberts et al previously (Roberts, Stockmann et al. 2016). Blood was collected every 15 min for the first 90 min of postnatal life, followed by every 3 hours for 12 hours and then spaced at 1.5 d, 2.5 d, 3.5 d, 6.5 d, and 9.5 d for analysis of cytokines (Visconti, Senthamaraikannan et al. 2018) and VEGF levels (Albertine, Dahl et al. 2010). The blood samples also were analyzed for hematology and liver enzymes. After 6-7 d of mechanical ventilation, the lambs will be weaned from mechanical ventillation and weaned to non-invasive support for 3 d to ascertain longer-term outcome (Dahl, Bowen et al. 2018). Terminally, the PT lambs were euthanized after 10 days and their heart/lungs and brain were removed. Ex vivo BAL of the right cranial lobe (it has its own bronchus, pulmonary artery and vein) was done for similar analyses. Tracheal aspirates were collected according to the protocol for cytokines, BAL protein, ICAM-1 and VEGF. The spleen was collected to analyze immune cell population, using FACS.
Bronchoalveolar lavage fluid (BALF) Analysis. Pups were sacrificed on PN14, and the trachea was cannulated with a small-caliber needle by instilling PBS endotracheally at […] pressure for 15 minutes. Two volumes of 300 μL of cold 1×PBS were instilled, gently aspirated, and pooled. Samples were centrifuged at 1000×g for 10 minutes at 4° C. The supernatant was collected, and total protein was quantified using the Pierce™ BCA Protein Assay Kit (Fisher Scientific Co, Houston, TX). The total cell count was done using the TC20 cell counter (BioRad, Hercules, CA). Similar method was followed for analyzing the protein concentration in BAL fluid collected from preterm lambs.

hPBMC [1] = assay: Macrophage populations in hPBMC by FACS; type: cell-based, human; conditions: 72 h
Description: Briefly, hPBMC were plated in a 96 well plate and treated with AVR 48 for 72 hrs. The cells were washed and stained for CD32, CD14, CD16, HLADR, CD86, CD206 anti-human antibodies and were analyzed by FACS. Dead cells were excluded by live/dead staining (7AAD) during analysis. The % of intermediate macrophages of the parent cells are determined as the macrophages stained positive for both HLADR and CD206 surface markers. The bar graph representing percentage of intermediate macrophages (Mint) of the parent macrophage populations (CD14+CD16+) after treatment with AVR-48. n=2 technical replicates and the experiment is repeated 3 times. AVR-48 binds to both toll-like receptor 4 (TLR4) and CD163 receptor on monocytes. In hPBMC, AVR-48 treatment for 72 h increased the percentage of intermediate macrophages and decreased M1 macrophages.

[2] = PK study in rat pups by SC or IV (plasma, BALF); type: in vivo; conditions: for accumulation ratio using AUC(0-t): BALF, SC
[3] = PK study in mouse pups by IP and IN routes (plasma, lung tissue); type: in vivo
Excerpt: Pharmacokinetic (PK) Profile of AVR-48 (compound 8). The PK studies of AVR-48 were developed and designed in-house, by high performance liquid chromatography (HPLC), in both mouse and rat pups by IV, IP and IN dosing, to check the bioavailability of the drug formulated as solution, suspension or nanoparticle encapsulation in plasma, broncho-alveolar lavage fluid (BALF) and lung tissues.
The first study was done in the plasma of mouse pups by IP and IN routes to determine the dose range for efficacy. […] For IN dosing, a Tmax of 1 h was found even with a dose of 0.22 mg/kg and rapid clearance was observed by 2 h.

hPBMC [4] = assay: Secreted IL-10 and LPS induced TNF-α in hPBMC by ELISA; type: cell-based, human
Description: FIG. 26 C, Pretreatment (24 h) of AVR-48 to hPBMC followed by 6h of treatment with LPS (25 ng/ml) decreased the secreted TNF-α production in hPBMC cell supernatants. N=3.**p<0.01, ***p<0.001. One-way ANOVA.

[5] = vs vehicle treated lambs after 10 days
[6] = C57BL/6J, mouse, plasma, 10 mg/kg IP

## CC(=O)N[C@@H]1C(Oc2ccc([N+](=O)[O-])cc2)OC(CO)C(O)C1O (stereo partly drawn) [AVR-48]
pre-term lamb BPD model; high dose (3.0 mg/kg)
  VEGF concentrations in BAL fluid: no effect
pre-term lamb BPD model; low doses
  VEGF concentrations in BAL fluid: increase
pre-term lamb BPD model; [5]
  ICAM-1 concentrations in BAL fluid: increase
  total protein concentration in BAL fluid: decreased
hPBMC [1]
  M1 macrophages: decreased
  percentage of intermediate macrophages: increased
[2]; 100 mg/kg/day
  accumulation ratio using AUC(0-t): 1.90
[2]; 150 mg/kg/day
  accumulation ratio using AUC(0-t): 0.880
[2]; Sprague Dawley Crl:CD, rat, in vivo, sc, AUC(0-t)
  AUC(0-t): 2610 ng·h/mL
[2]; rat, in vivo, sc, 75 mg/kg
  AUC(0-t) dose proportionality: increased in a dose-proportional manner
[3]; C57BL/6J, mouse, intraperitoneal, lung tissue, 10 mg/kg
  Tmax: 5 min
[3]; C57BL/6J, mouse, intraperitoneal, plasma, single IV or IP injection of 10 mg/kg
  Cmax: 5.78 ± 0.91 µM
[3]; C57BL/6J, mouse, plasma, other: intranasal (IN), IN dosing, 0.22 mg/kg
  Tmax: 60 min
[3]; C57BL/6J, mouse, plasma, 0.22 mg/kg IP
  Tmax: 5 min
[3]; [6]
  Tmax: 5 min
  half-life: 21.6 min
[3]; IN dosing, 0.22 mg/kg
  time by which rapid clearance was observed: ≤ 2 h
[3]; following IP injection
  clearance from circulation: cleared from circulation rapidly
[3]; solution formulation
  bioavailability in plasma and lungs, IN vs IP: similar
hPBMC [4]; 24 h pretreatment followed by 6 h LPS (25 ng/ml)
  secreted TNF-α production: decreased
hPBMC [4]; hPBMC supernatant, 24 h post treatment
  secreted IL-10 levels: dose dependently increased
